The source of these data is ChEMBL document CHEMBL2029212, “Discovery of 1,4-disubstituted 3-cyano-2-pyridones: a new class of positive allosteric modulators of the metabotropic glutamate 2 receptor” (J Med Chem, 2012).

Data set [1] concerns the target T1, Metabotropic glutamate receptor 2 (Homo sapiens, UniProt Q14416). Kind of data set: Positive allosteric modulation of human mGlu2 receptor expressed in CHO cells assessed as glutamate-induced [35S]GTPgammaS binding after 30 mins by liquid scintillation counting. Type of data set: functional, cell-based.
Target sequence in this assay (Q14416 whole entry): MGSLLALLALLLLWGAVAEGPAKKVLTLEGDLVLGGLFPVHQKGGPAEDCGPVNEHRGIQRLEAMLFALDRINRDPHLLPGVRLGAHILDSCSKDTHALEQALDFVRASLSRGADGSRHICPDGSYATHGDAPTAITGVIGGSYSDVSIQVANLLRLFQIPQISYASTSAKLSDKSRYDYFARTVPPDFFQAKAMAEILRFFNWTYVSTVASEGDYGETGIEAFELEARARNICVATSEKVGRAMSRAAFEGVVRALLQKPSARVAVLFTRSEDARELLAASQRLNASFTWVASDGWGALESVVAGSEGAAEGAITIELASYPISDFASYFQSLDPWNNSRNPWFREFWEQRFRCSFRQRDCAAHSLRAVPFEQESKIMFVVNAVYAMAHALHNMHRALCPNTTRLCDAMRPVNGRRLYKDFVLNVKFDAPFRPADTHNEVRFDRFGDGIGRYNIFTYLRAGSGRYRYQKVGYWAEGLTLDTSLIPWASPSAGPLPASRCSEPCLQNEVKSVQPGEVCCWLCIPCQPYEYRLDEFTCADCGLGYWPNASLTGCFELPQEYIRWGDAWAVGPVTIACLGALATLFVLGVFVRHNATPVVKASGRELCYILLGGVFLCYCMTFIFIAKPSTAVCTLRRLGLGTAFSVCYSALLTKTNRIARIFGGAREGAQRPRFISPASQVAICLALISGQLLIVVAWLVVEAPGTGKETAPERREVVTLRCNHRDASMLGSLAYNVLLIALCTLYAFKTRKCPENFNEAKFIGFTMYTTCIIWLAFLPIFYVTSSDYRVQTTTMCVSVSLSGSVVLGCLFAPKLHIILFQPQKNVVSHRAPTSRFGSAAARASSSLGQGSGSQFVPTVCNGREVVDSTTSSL
Data set [2] has as its target T1, Metabotropic glutamate receptor 2. Kind of data set: Positive allosteric modulation of human mGlu2 receptor expressed in CHO cells assessed as glutamate-induced [35S]GTPgammaS binding after 30 mins by liquid scintillation counting relative to glutamate. Type of data set: functional, cell-based.
Target sequence in this assay (Q14416 19-872 limits assumed): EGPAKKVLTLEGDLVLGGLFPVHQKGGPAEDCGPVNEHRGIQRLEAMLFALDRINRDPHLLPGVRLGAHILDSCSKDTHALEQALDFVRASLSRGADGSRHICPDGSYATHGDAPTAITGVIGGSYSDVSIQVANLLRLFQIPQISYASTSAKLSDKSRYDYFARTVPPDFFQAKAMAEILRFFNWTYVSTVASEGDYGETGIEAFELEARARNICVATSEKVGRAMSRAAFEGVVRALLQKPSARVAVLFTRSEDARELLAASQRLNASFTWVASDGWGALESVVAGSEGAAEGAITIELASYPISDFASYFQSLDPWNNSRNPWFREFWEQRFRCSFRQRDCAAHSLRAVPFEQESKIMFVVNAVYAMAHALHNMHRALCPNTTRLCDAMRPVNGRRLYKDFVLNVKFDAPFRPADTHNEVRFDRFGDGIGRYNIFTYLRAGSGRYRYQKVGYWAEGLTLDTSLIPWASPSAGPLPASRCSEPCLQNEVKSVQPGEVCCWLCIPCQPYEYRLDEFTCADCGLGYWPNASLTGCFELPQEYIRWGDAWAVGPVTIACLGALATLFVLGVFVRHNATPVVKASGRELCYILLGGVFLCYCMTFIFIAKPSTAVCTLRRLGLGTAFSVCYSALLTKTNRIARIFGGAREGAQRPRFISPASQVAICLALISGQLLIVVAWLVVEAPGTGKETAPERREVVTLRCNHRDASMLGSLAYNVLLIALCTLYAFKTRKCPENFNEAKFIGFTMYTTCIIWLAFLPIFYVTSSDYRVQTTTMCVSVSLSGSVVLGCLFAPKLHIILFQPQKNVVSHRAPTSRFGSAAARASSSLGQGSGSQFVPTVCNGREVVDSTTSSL
Data set [3] is described as follows: Drug metabolism in human liver microsomes at 5 uM after 15 mins. Type of data set: ADME, Microsome. The following applies: read-out: Drug metabolism. A general note: Liver microsomes are vesicles of endoplasmic reticulum, rich in cytochrome P450 enzymes.
A short description of data set [4]: Drug metabolism in rat liver microsomes at 5 uM after 15 mins. Type of data set: ADME, Microsome. To be noted: read-out: Drug metabolism.

As usually defined, the EC50 is the concentration that produces a half-maximal response. As a reminder, the Emax is the greatest response seen or fitted, relative to the assay's reference. Consider `COc1ccc(-c2ccn(CCC(C)C)c(=O)c2C#N)cc1Cl`, for which the concentration giving a half-maximal response (EC50) in data set [1] is 363 nM. Also, the Emax in data set [2] amounted to 200%. Besides, the metabolised at 0.25 h, 5 µM in data set [3] turned out to be 43%; in data set [4], 99%.

As for `CC(C)CCn1ccc(-c2ccc(OCC3CC3)c(Cl)c2)c(C#N)c1=O`, in data set [1], the EC50 was found to be 110 nM. Besides, the Emax in data set [2] came out at 206%. The metabolised at 0.25 h, 5 µM in data set [3] stood at 17%; in data set [4], 72%.

Turning to `CC(C)CCn1ccc(-c2ccc(OC3CCCC3)c(Cl)c2)c(C#N)c1=O`, the EC50 in data set [1] turned out to be 100 nM. Also, the Emax in data set [2] was 199%.

As to `COc1ccc(-c2ccn(CCC(C)C)c(=O)c2C#N)cc1F`, the EC50 in data set [1] came out at 1170 nM. In addition, the Emax in data set [2] came out at 160%. In addition, in data set [3], the metabolised at 0.25 h, 5 µM was 35%.

`Cc1ccc(Oc2ccc(-c3ccn(CCC(C)C)c(=O)c3C#N)cc2)c(C)n1`: the half-maximal effective concentration (EC50) in data set [1] came out at 100 nM. The maximum response (Emax) in data set [2] was 246%. Besides, the metabolised at 0.25 h, 5 µM was 59% in data set [3] and 49% in data set [4].

`CC(C)CCn1ccc(-c2ccc(OCC3CC3)cc2)c(C#N)c1=O`: in data set [1], the concentration for a half-maximal effect (EC50) was found to be 290 nM. In data set [2], the maximal response (Emax) is 192%. The metabolised at 0.25 h, 5 µM in data set [3] came out at 17%; in data set [4] it was 16%.

Take `CC(C)CCn1ccc(-c2ccc(NC3CCOCC3)c(Cl)c2)c(C#N)c1=O`: the concentration for a half-maximal effect (EC50) in data set [1] was determined as 174 nM. The Emax in data set [2] was 247%. In addition, the metabolised at 0.25 h, 5 µM amounted to 42% in data set [3] and 47% in data set [4].

As for `CCCCn1ccc(-c2ccc(Oc3ccnc(C)c3)c(Cl)c2)c(C#N)c1=O`, the EC50 in data set [1] came out at 166 nM. For the same compound, the maximum response (Emax) in data set [2] stood at 245%. Further, the figures for the metabolised at 0.25 h, 5 µM in data set [3] and in data set [4] were 35% and 51%, respectively.

In the case of `COc1ccc(-c2ccn(CCC(C)C)c(=O)c2C#N)cc1OC`, the half-maximal effective concentration (EC50) in data set [1] was 260 nM. In addition, in data set [2], the maximal effect (Emax) is 242%. Moreover, the metabolised at 0.25 h, 5 µM in data set [3] was 26%.

With `COc1ccc(-c2ccn(CCC(C)C)c(=O)c2C#N)cc1`, the concentration for a half-maximal effect (EC50) in data set [1] stood at 1150 nM. The Emax in data set [2] worked out at 160%.

As to `CNc1ccc(-c2ccn(CCC(C)C)c(=O)c2C#N)cc1`, the EC50 in data set [1] worked out at 460 nM. Also, in data set [2], the Emax amounted to 186%.

On to `CCCCn1ccc(-c2ccc(Oc3ccnc(C)c3)cc2Cl)c(C#N)c1=O`, for which the EC50 in data set [1] turned out to be 933 nM. Further, in data set [2], the Emax came to 187%. Besides, the metabolised at 0.25 h, 5 µM is 34% in data set [3] and 47% in data set [4].

On to `CC(C)CCn1ccc(-c2ccccc2)c(C#N)c1=O`, for which the 50% effective concentration (EC50) in data set [1] was found to be 8510 nM. Also, the maximum response (Emax) in data set [2] was 117%. Moreover, the metabolised at 0.25 h, 5 µM in data set [3] came to 36%; in data set [4] it was 100%.

`COc1ccccc1-c1ccn(CCC(C)C)c(=O)c1C#N`: the EC50 in data set [1] is above 10000 nM. Further, the Emax in data set [2] amounted to 120%. Also, the metabolised at 0.25 h, 5 µM in data set [3] is 38%.

Regarding `Cc1ncccc1Oc1ccc(-c2ccn(CC3CC3)c(=O)c2C#N)cc1`, the concentration giving a half-maximal response (EC50) in data set [1] came to 1070 nM. Also, the Emax in data set [2] amounted to 155%. The metabolised at 0.25 h, 5 µM in data set [3] amounted to 36%; in data set [4], 39%.

Take `CC(C)CCn1ccc(-c2ccc(OC3CCOCC3)c(Cl)c2)c(C#N)c1=O`: the EC50 in data set [1] amounted to 186 nM. For the same compound, the maximal response (Emax) in data set [2] turned out to be 197%. Further, the metabolised at 0.25 h, 5 µM in data set [3] was 36%; in data set [4] it was 54%.

For `Cc1cc(Oc2ccc(-c3ccn(CC4CC4)c(=O)c3C#N)cc2)ccn1`, the EC50 in data set [1] is 832 nM. For the same compound, the Emax in data set [2] is 199%. In addition, the metabolised at 0.25 h, 5 µM came to 9% in data set [3] and 19% in data set [4].

With `CCCCn1ccc(-c2ccc(Oc3ccc(C)nc3C)cc2)c(C#N)c1=O`, the EC50 in data set [1] turned out to be 138 nM. Further, the Emax in data set [2] is 239%. Further, the metabolised at 0.25 h, 5 µM in data set [3] turned out to be 51%; in data set [4], 60%.

With `COc1cccc(-c2ccn(CCC(C)C)c(=O)c2C#N)c1`, the Emax in data set [2] was 176%. Further, the metabolised at 0.25 h, 5 µM in data set [3] stood at 74%.
